Assay results: patent US11229618B2 (Amarin Pharmaceuticals Ireland Limited, priority 2012, dated 2022)

Assays:
[1] = MARINE: RBC fatty acid concentrations, ratios and class proportions (GC/FID); assay type: in vivo, human
Method: A multi-center, placebo-controlled randomized, double-blind, 12-week study with an open-label extension is performed to evaluate the efficacy and safety of AMR101 in patients with fasting triglyceride levels≥500 mg/dL. The primary objective of the study is to determine the efficacy of AMR101 2 g daily and 4 g daily, compared to placebo, in lowering fasting TG levels in patients with fasting TG levels≥500 mg/dL and ≤1500 mg/dL (≥5.65 mmol/L and ≤16.94 mmol/L).
Eligible patients will be randomly assigned at Visit 4 (Week 0) to receive orally AMR101 2 g daily, AMR101 4 g daily, or placebo for the 12-week double-blind treatment period. AMR101 is provided in 1 g liquid-filled, oblong, gelatin capsules. The matching placebo capsule is filled with light liquid paraffin and contains 0 g of AMR101. During the double-blind treatment period, patients will take 2 capsules (AMR101 or matching placebo) in the morning and 2 in the evening for a total of 4 capsules per day. Patients in the AMR101 2 g/day treatment group will receive 1 AMR101 1 g capsule and 1 matching placebo capsule in the morning and in the evening. Patients in the AMR101 4 g/day treatment group will receive 2 AMR101 1 g capsules in the morning and evening.
Lipids were extracted from plasma and RBC suspensions and converted into fatty acid methyl esters for analysis using a standard validated gas chromatography/flame ionization detection method. Fatty acid parameters were compared between EPA treatment groups and placebo using an ANCOVA model with treatment, gender, type of statin therapy, and presence of diabetes as factors, and the baseline parameter value as a covariate. LSMs, SEs, and 2-tailed 95% confidence intervals for each treatment group and for each comparison were determined.
The monounsaturated fatty acid group included myristoleic, palmitoleic, cis-vaccenic, oleic, gondoic/gadoleic, erucic and nervonic acids. The saturated fatty acid group included myristic, palmitic, stearic, arachidic, behenic and lignoceric acids. The “total omega-3” group included α-linolenic, stearidonic, eicosatrienoic, ω-3 arachidonic, eicosapentaenoic, ω-3 docosapentaenoic and docosahecaenoic acids. The “total omega-6” group included linoleic, γ-linolenic, eicosadienoic, dihomo-γ-linolenic, ω-6 arachidonic, adrenic, and ω-6 docosapentaenoic acids. The “total fatty acid” group represented the sum of the monounsaturated, saturated, total omega-3 and total omega-6 groups.

[2] = Cross-study analysis of trough EPA concentrations in plasma and RBCs (Phase 1 PK, MARINE, ANCHOR); assay type: in vivo, human
Method: The objective of this Example is to examine the effects of high-purity ethyl eicosapentaenoate (“IPE”) on EPA concentrations in plasma and RBCs in response to dose and the relationship to triglyceride (“TG”) lowering across 3 clinical studies.
MARINE and ANCHOR were 12-week, phase 3, double-blind studies that randomized patients to IPE 4 g/day, 2 g/day, or placebo. MARINE randomized 229 patients with TG≥500 and ≤2000 mg/dL while ANCHOR randomized 702 high-risk patients with TG≥200 and ≤500 mg/dL despite LDL-C control while on statin therapy. IPE 4 g/day and 2 g/day were also investigated in 48 healthy subjects for 4 weeks in a phase 1 pharmacokinetic (“PK”) study. […]
In the MARINE and ANCHOR studies, the trough EPA concentrations were measured after 12 weeks of dosing with placebo, 2 g/day or 4 g/day IPE
In the Phase 1 PK study, the trough EPA concentrations were measured after 28 days of dosing with 2 or 4 g/day IPE (there was no placebo group; a value of zero is used in plots as a point of reference)
EPA concentrations were measured with a validated LC-MS/MS method in plasma and in RBCs in all 3 studies […]
Quantitation utilized linolenic acid as an internal standard and EPA as the standard for the calibration curve; for total plasma EPA and total RBC EPA, the lower limits of quantitation were 10 μg/mL and 5 μg/mL, respectively

[3] = red blood cell, IPE 4 g/day vs placebo, week 12, P <0.0001

CC/C=C\C/C=C\C/C=C\C/C=C\C/C=C\CCCC(=O)OCC [IPE, all-cis eicosa-5,8,11,14,17-pentaenoic acid ethyl ester]
Mono-unsaturated, proportion to total fatty acids, Mean placebo-adjusted percent change from baseline ([1]; RBCs, IPE 2 g/day vs placebo, P 0.0435): −3.1%
Saturated, proportion to total fatty acids, Mean placebo-adjusted percent change from baseline ([1]; RBCs, IPE 2 g/day vs placebo, P 0.3278): 1.1%
Mono-unsaturated, proportion to total fatty acids, Mean placebo-adjusted percent change from baseline ([1]; RBCs, IPE 4 g/day vs placebo, P 0.0154): −3.9%
Saturated, proportion to total fatty acids, Mean placebo-adjusted percent change from baseline ([1]; RBCs, IPE 4 g/day vs placebo, P 0.1145): 1.9%
Total omega-6, proportion to total fatty acids, Mean placebo-adjusted percent change from baseline ([1]; RBCs, IPE 4 g/day vs placebo, P <0.0001): −17.3%
AA Mean placebo-adjusted percent change from baseline ([1]; red blood cell, IPE 2 g/day vs placebo, week 12, P 0.0008): −8.0%
Linoleic Mean placebo-adjusted percent change from baseline ([1]; red blood cell, IPE 2 g/day vs placebo, week 12, P 0.1278): −4.7%
Oleic Mean placebo-adjusted percent change from baseline ([1]; red blood cell, IPE 2 g/day vs placebo, week 12, P 0.3736): −2.1%
DHA Mean placebo-adjusted percent change from baseline ([1]; red blood cell, IPE 2 g/day vs placebo, week 12, P 0.5859): −1.8%
Stearic Mean placebo-adjusted percent change from baseline ([1]; red blood cell, IPE 2 g/day vs placebo, week 12, P 0.5886): 1.1%
Palmitic Mean placebo-adjusted percent change from baseline ([1]; red blood cell, IPE 2 g/day vs placebo, week 12, P 0.9465): −0.1%
DPAn-3 Mean placebo-adjusted percent change from baseline ([1]; red blood cell, IPE 2 g/day vs placebo, week 12, P <0.0001): 86.4%
DHA Mean placebo-adjusted percent change from baseline ([1]; red blood cell, IPE 4 g/day vs placebo, week 12, P 0.1216): −5.2%
Oleic Mean placebo-adjusted percent change from baseline ([1]; red blood cell, IPE 4 g/day vs placebo, week 12, P 0.1325): −3.7%
Palmitic Mean placebo-adjusted percent change from baseline ([1]; red blood cell, IPE 4 g/day vs placebo, week 12, P 0.7427): −0.7%
Stearic Mean placebo-adjusted percent change from baseline ([1]; red blood cell, IPE 4 g/day vs placebo, week 12, P 0.7565): −0.7%
DPAn-3 Mean placebo-adjusted percent change from baseline [1, 3]: 105.6%
Linoleic Mean placebo-adjusted percent change from baseline [1, 3]: −13.0%
dose dependence of plasma and RBC EPA levels ([2]; 2 and 4 g/day groups, all 3 studies): linear with dose
effect of demographic factors, baseline TG levels and concomitant medications on EPA concentrations in plasma and RBCs ([2]; MARINE and ANCHOR): did not affect the increase in EPA concentrations
